From patent US12649748B2, “Wee1 inhibitor and use thereof” (JIANGSU TASLY DIYI PHARMACEUTICAL CO., LTD., priority 2021, dated 2026) come the findings set out here.

Data set [1] relates to H1299 cells. As to the kind of experiment: Anti-proliferative effect by Cell Titer-Glo, H1299. In kind it is cell-based. As to conditions: Homo sapiens, NCI-H1299, 72 h, read-out: IC50 measured value H1299. As for the experimental part:
(§1) Compound solutions of different concentration gradients were prepared. DMSO was dissolved to a concentration of 10 mM test compound and 10 mM reference compound AZD1775, and the compounds were serially diluted in culture medium for a total of 9 dose points, with 2 parallel replicates set at each concentration. The cell growth group without compound was used as a positive control (maximum signal control) and the medium was used as a negative control (minimum signal control), while ensuring that the final level of DMSO in each reaction well was 0.2%. After removing the medium from the 384-well plate, 25 ul of the configured compound at different concentrations was transferred into the well plate and the compound and cells were incubated in the cell incubator at 37° C. with 5% CO2 for 3 days.
(§2) The 384-well plates were removed from the cell incubator and allowed to equilibrate for 1 h to room temperature. 25 ul of Cell Titer-Glo assay was added to each well, lysed on a shaker for 2 min and then read out (Luminescence) using a BMG PHERAStar after 10 min incubation. Calculate the inhibition rate from the luminescence signal: first calculate the average of the positive control (maximum signal control) and the negative control (minimum signal control).
(§3) [formula] to calculate the rate of inhibition of the cells by different concentrations of the compounds. The IC50 of the compound on cell activity inhibition was calculated by fitting a log(inhibitor) vs. response-Variable slope model to GraphPad Prism 6. The fitted equation was: Y=Bottom+(Top−Bottom)/(1+10^((Log IC50−X)*HillSlope)), where Y represents the rate of inhibition and X represents the concentration of the known compound after Log.
In general terms: ATP-based viability assays read luminescence as a measure of living cells.

A short description of data set [2]: Solubility test. The format is physicochemical. As to conditions: aqueous buffer, thermodynamic from solid; buffer solution, shaken at constant temperature 24 h. On the procedure:
The compound was placed in a buffer solution and shaken at constant temperature for 24 h. […] Chromatographic conditions: C18 column, mobile phase A: 0.02 M potassium dihydrogen phosphate:acetonitrile=90:10, mobile phase B: acetonitrile; V: 1.0 ml/min, T: 35° C., λ: 210 nm.

For data set [3], the target named is T1, Wee1 protein (Homo sapiens, UniProt P30291).
T1 construct: purchased Thermo Fisher PR7373A
T1 sequence (P30291 whole entry): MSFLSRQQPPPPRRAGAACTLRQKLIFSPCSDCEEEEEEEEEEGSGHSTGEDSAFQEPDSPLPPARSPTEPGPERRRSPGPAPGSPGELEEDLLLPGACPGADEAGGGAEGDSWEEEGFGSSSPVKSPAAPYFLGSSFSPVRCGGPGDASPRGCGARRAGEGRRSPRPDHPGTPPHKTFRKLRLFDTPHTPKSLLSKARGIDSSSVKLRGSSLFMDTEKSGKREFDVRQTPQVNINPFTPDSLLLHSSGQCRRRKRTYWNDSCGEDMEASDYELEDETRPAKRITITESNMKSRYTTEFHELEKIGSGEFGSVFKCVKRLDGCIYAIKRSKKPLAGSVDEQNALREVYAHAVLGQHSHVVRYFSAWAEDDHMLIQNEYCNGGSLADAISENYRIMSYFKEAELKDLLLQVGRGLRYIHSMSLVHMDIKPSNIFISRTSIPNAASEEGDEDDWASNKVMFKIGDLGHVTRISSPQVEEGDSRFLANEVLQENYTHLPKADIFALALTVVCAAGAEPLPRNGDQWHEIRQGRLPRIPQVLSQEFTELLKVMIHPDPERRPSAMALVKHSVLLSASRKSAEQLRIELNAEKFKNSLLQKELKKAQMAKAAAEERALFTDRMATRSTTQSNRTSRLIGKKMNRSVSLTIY
As to the kind of experiment: Binding of compound to Wee1 protein and Tracer 178 by TR-FRET. As to conditions: inhibitory activity against Wee1 kinase, read-out: IC50 measured value. As for the experimental part:
First, solutions of the compounds in different concentration gradients were prepared. […] DMSO was added as a positive control (maximal signal control) and a negative control (minimal signal control) and a final level of 0.25% DMSO was ensured in each reaction well.
WEE1 (Thermo Fisher, Cat #PR7373A) protein in buffer (50 mM Hepes pH 7.5, 10 mM MgCl2, 1 mM EGTA, 0.01% Brij-35) at 15 nM) in different concentrations of compound, and Tracer 178 (Invitrogen, PV5593) and MAb Anti-GST-Eu crypate (Cisbio, 61GSTKLA) were added to 384-well plates (Corning, cat #3574), centrifuged at 1000 rpm for 1 min and the 384-well plates were incubated in a constant temperature shaker for 60 min at 25° C. and 300 rpm. Tracer 178 and MAb Anti-GST-Eu crypate were prepared in buffer (50 mM HEPES pH 7.5, 10 mM MgCl2, 1 mM EGTA, 0.01% Brij-35) with a final reaction concentration of 50 nM for Tracer 178 and a final concentration of 2 nM for MAb Anti-GST-Eu crypate, where the negative control (minimal signal control) used an equal amount of buffer in place of the protein solution.
After incubation, readings were performed using BMG PHERAStar (excitation light at 337 nm and emission light at wavelength values of 620 nm and 665 nm to read the fluorescence signal values). […] The IC50 for inhibition of enzyme activity by the compounds was then calculated using GraphPad Prism 6 and fitted with a log (inhibitor) vs. response-Variable slope mode. The fitting equation was: Y=Bottom+(Top-Bottom)/(1+10^((Log IC50−X)*HillSlope)), where Y represents the percentage of residual enzyme activity known and X represents the known concentration of compound after the logarithm.
(TR-FRET usually uses a lanthanide donor and a delayed reading to cut background.)

Data set [4] is described as follows: Metabolic stability of liver microsomes in vitro (human). The format is in vitro ADME. As to conditions: read-out: Human T1/2/min. As for the experimental part:
(§4) Microsomes were taken out from the −80° C. refrigerator, rapidly melted in a 37° C. water bath and placed on ice until ready to use. The test article was diluted with DMSO to prepare a 10 mM stock solution, and then diluted with acetonitrile to a 0.5 mM secondary stock solution. The microsomes were diluted to 0.75 mg/ml using Buffer C; the secondary stock solution was then added to a final concentration of 1.5 μM of compound as working solution, based on n=2, 5 time points, 350 μL of each compound was prepared and placed on ice prior to use. NADPH was diluted with Buffer C to a working solution of 6 mM for the starter solution. An acetonitrile solution containing an internal standard was prepared as the precipitant, and Verapamil-HCl was chosen as the internal standard at a concentration of 4 ng/ml.
(§5) A round-bottom well plate was taken, noted as the reaction plate, and the prepared working solution for each compound was dispensed into the well plate according to the number of replicates and time points (0 h samples are also added to the reaction plate), 30 μL/well; the plate was incubated at 37° C. for 10 min. A separate plate with pointed bottom wells, noted as a precipitation plate, was added with 135 μL precipitant per well; 0 h samples were transferred to the plate after 10 min incubation and 15 μL of starter solution was added; the plate was placed on ice before centrifugation.
(§6) The diluted starter solution was added in sufficient quantity to the dispensing plate to facilitate the multichannel pipette aspiration operation.
(§7) The reaction was carried out on a warm incubation shaker and 15 μL of starter solution/sample is added to the plate using a multichannel pipette. The reaction was mixed with a slight shake to initiate the reaction, which was accurately timed and recorded using a timer;
(§8) After the reaction time had elapsed, all the solution in the plate was aspirated using the multichannel pipette and added to the precipitation plate to terminate the reaction at that point in time. After all reactions had been terminated, the plates were shaken for ten minutes on a plate shaker at 600 rpm to precipitate the protein. The plate was centrifuged at 4° C. for 15 minutes at maximum rpm. 80 μL of supernatant was taken, 320 μL of pure water was added and mixed for LC-MS analysis.
Background: Liver microsomes are vesicles of endoplasmic reticulum, rich in cytochrome P450 enzymes.

Data set [5] concerns MIA Paca-2 cells. As to the kind of experiment: Anti-proliferative effect by Cell Titer-Glo, MIA Paca-2. The format is cell-based. Conditions: Homo sapiens, 72 h; MIA Paca-2 cells, 3 days, Cell Titer-Glo; read-out: IC50 measured value MIA Paca-2. As for the experimental part:
as §1, §2, §3

Data set [6] is described as follows: Metabolic stability of liver microsomes in vitro (mouse). The format is in vitro ADME. Conditions: read-out: Mouse T1/2/min. As for the experimental part: as §4, §5, §6, §7, §8

Converted amounts (≈) assume the structure as drawn. Like-named read-outs stand apart in the source and are kept apart here. Some results are limits rather than exact numbers.

Take `CN1CCN(c2ccc(Nc3ncc4cnn(-c5cccc(C6(C#N)CC6)n5)c4n3)cc2)CC1` [Compound 3]: the 50% inhibitory concentration (IC50) (in general, the concentration needed to halve the response being measured) in data set [1] lay in the range of 1000 to 5000 nM; in data set [3], 10 to 100 nM. Further, the solubility (in general, the concentration that dissolves in the medium under given conditions) at 24 h in data set [2] was found to be 60 µg/mL (≈ 133 µM).
Consider `CN1CCC(c2ccc(Nc3ncc4cnn(-c5cccc(N=S(C)(C)=O)n5)c4n3)cc2)CC1` [Compound 18], for which the IC50 lay in the range of 1000 to 5000 nM in data set [1] (H1299 cells, 3 days, Cell Titer-Glo); 100 to 1000 nM in data set [5]; 1 to 10 nM in data set [3]. The half-life at 1 µM in data set [4] and in data set [6] was greater than 2 h in each case.
